Measurements taken from paper PMC10485979, “CUDC-907, a dual PI3K/histone deacetylase inhibitor, increases meta-iodobenzylguanidine uptake (^123/131I-mIBG) in vitro and in vivo: a promising candidate for advancing theranostics in neuroendocrine tumors” (Journal of Translational Medicine, 2023).

Legend:
[1] = target: T1, norepinephrine transporter (NET) (Homo sapiens, UniProt P23975); assay: inhibition of mIBG internalization in HEK-NET cells, LC-MS/MS quantification; assay type: cell-based
T1 construct: gene SLC6A2; human NET expressed in transfected HEK293 cells
T1 sequence (P23975 whole entry): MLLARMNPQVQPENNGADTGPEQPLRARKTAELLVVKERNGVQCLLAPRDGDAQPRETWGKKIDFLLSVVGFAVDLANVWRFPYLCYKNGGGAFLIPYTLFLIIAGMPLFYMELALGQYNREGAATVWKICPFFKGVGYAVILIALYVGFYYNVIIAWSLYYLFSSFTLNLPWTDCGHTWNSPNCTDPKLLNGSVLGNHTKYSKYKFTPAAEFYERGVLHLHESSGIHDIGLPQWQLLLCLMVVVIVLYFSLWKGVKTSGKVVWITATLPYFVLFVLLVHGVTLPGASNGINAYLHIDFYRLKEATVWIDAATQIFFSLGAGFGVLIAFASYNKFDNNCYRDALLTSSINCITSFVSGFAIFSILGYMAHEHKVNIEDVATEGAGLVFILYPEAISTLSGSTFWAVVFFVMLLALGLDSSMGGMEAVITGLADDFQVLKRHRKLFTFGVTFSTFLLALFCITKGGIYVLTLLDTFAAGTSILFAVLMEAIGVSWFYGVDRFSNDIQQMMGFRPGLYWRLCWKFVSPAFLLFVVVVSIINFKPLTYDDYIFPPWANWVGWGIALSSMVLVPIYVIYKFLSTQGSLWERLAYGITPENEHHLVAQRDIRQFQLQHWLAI

[2] = substrate: N=C(N)NCc1cccc(I)c1; assay: cells, lysate or membranes

Molecule | IC50 [1] [µM] | Km [2] [µM]
c1ccc(CCCN2CCN(CCOC(c3ccccc3)c3ccccc3)CC2)cc1 [GBR12935] | 3.61 | –
dopamine transporter (DAT) (Homo sapiens) (protein) MSKSKCSVGLMSSVVAPAKEPNAVGPKEVELILVKEQNGVQLTSSTLTNPRQSPVEAQDRETWGKKIDFLLSVIGFAVDLANVWRFPYLCYKNGGGAFLVPYLLFMVIAGMPLFYMELALGQFNREGAAGVWKICPILKGVGFTVILISLYVGFFYNVIIAWALHYLFSSFTTELPWIHCNNSWNSPNCSDAHPGDSSGDSSGLNDTFGTTPAAEYFERGVLHLHQSHGIDDLGPPRWQLTACLVLVIVLLYFSLWKGVKTSGKVVWITATMPYVVLTALLLRGVTLPGAIDGIRAYLSVDFYRLCEASVWIDAATQVCFSLGVGFGVLIAFSSYNKFTNNCYRDAIVTTSINSLTSFSSGFVVFSFLGYMAQKHSVPIGDVAKDGPGLIFIIYPEAIATLPLSSAWAVVFFIMLLTLGIDSAMGGMESVITGLIDEFQLLHRHRELFTLFIVLATFLLSLFCVTNGGIYVFTLLDHFAAGTSILFGVLIEAIGVAWFYGVGQFSDDIQQMTGQRPSLYWRLCWKLVSPCFLLFVVVVSIVTFRPPHYGAYIFPDWANALGWVIATSSMAMVPIYAAYKFCSLPGSFREKLAYAIAPEKDRELVDRGEVRQFTLRHWLKV | – | 2.807
